Data as given in patent US20250340561A1, “QUINAZOLINE COMPOUND FOR INDUCING DEGRADATION OF G12D MUTANT KRAS PROTEIN” (Astellas Pharma Inc., priority 2021, published 2025).

The compounds below were run on human KRAS G12D mutant-positive PK-59 pancreatic cancer cell line-derived xenograft (assay: Test Example 4: anti-tumor activity in PK-59 xenograft mice). Details: PK-59 xenograft nude mice, 10 mg/kg into tail vein, twice with an interval of once a week.
Format: in vivo
Method: Test Example 4: Evaluation of Anti-Tumor Activity in Human KRAS G12D Mutant-Positive PK-59 Pancreatic Cancer Cell Line-Derived Xenograft Mice
PK-59 cells (RTKEN BRC, RCB 1901) were cultured using a RPMI 1640 medium containing 10% fetal bovine serum in the presence of 5% CO2 at 37° C. The PK-59 cells were collected and suspended in PBS, and after adding an equal amount of Matrigel (from Becton, Dickinson and Company), the cell suspension prepared at 1.0×10^7 to 2.0×10^7 cells/mL was subcutaneously inoculated in a volume of 100 μL in 4- to 6-week-old male nude mice (CAnN.Cg-Foxn1^nu/CrlCrlj (nu/nu), from Charles River Laboratories Japan). About two weeks after the inoculation, the mice were divided into groups so that all the groups had approximately the same tumor volume and body weight, and administration of test compounds was started on the next day. The study was conducted for 5 mice each of a vehicle group and test compound administration groups. The compounds of Example 8, Example 48 and Example 70 were dissolved in a solvent containing ethanol (from FUJIFILM Wako Pure Chemical Corporation), a 5% glucose solution (from Otsuka Pharmaceutical), 1M hydrochloric acid (from Kanto Chemical Co., Inc.), an aqueous 50% (2-hydroxypropyl)-β-cyclodextrin (HP-βCD) solution (from ROQUETTE), HCO-40 (from Nikko Chemicals Co., Ltd.) and an aqueous 1M sodium hydroxide solution (from Kanto Chemical Co., Inc.) at a liquid amount ratio of 4:84.4:1.1:1:9:0.5. The compounds of Example 22 and Example 26 were dissolved in a solvent containing propylene glycol (from FUJIFILM Wako Pure Chemical Corporation), Tween80 (from Nacalai Tesque) and Otsuka normal saline (from Otsuka Pharmaceutical) at a liquid amount ratio of 6.7:3.3:90. The compound of Example 39 was dissolved in a solvent containing propylene glycol, ethanol, an aqueous 50% HP-PCD solution, HCO-40 and a 5% glucose solution at a liquid amount ratio of 10:8:10:10:62. The test compounds dissolved in the respective solvents or the solvents were administered into tail vein. The administration was performed twice with an interval of once a week. The tumor sizes and the body weights were measured twice a week. The tumor volumes were calculated using the following equation.
[Tumor volume (mm^3)]=[Major axis of tumor (mm)]×[Minor axis of tumor (mm)]^2×0.5
The tumor growth inhibitions (%) by the test compounds were calculated with the tumor volumes of the test compound administration groups on the previous day of the start of the administration taken as 100% inhibition and the tumor volumes of the vehicle groups two weeks after the initial administration taken as 0% inhibition. In addition, when the tumor volume of a test compound administration group was smaller than the tumor volume on the previous day of the start of the administration, the tumor regression (%) by the test compound was calculated with the tumor volume on the previous day of the start of the administration taken as 0% regression and with the tumor volume 0 taken as 100% regression. The molecular weights of the test compounds were calculated as the molecular weights of the dihydrochloride for Example No. 22 and the free forms forming no salt for the remaining Example Nos. The results for some test compounds of the formula (I) are shown in Table 5.

SMILES | Anti-Tumor Activity Two Weeks After Initial Administration (tumor growth inhibition) [% inhibition] | Anti-Tumor Activity Two Weeks After Initial Administration (tumor regression) [% regression]
Cc1c(F)cc2[nH]ncc2c1-c1c(C2CC2)cc2c(N3C[C@@H]4C[C@H]3CN4)nc(OC3CCOCC3)nc2c1OCc1ccc(-c2cn([C@H](C(=O)N3C[C@H](O)C[C@H]3C(=O)N[C@@H](CO)c3ccc(-c4ccnn4C)cc3)C(C)C)nn2)cc1 [Example 22] | 93 | –
CO[C@H](C)[C@@H](C)Oc1nc(N2C[C@@H]3C[C@H]2CN3)c2cc(C3CC3)c(-c3c(C)c(F)cc4[nH]ncc34)c(OCc3ccc(-c4cn([C@H](C(=O)N5C[C@H](O)C[C@H]5C(=O)N[C@@H](CO)c5ccc(-c6scnc6C)cc5)C(C)C)nn4)cc3)c2n1 [Example 39] | – | 13
CCn1nccc1-c1ccc([C@H](CO)NC(=O)[C@@H]2C[C@@H](O)CN2C(=O)[C@H](C(C)C)n2cc(-c3ccc(COc4c(-c5c(C)c(F)cc6[nH]ncc56)c(C5CC5)cc5c(N6C[C@@H]7C[C@H]6CN7)nc(OC[C@H](C)OC)nc45)cc3)nn2)cc1 [Example 70] | – | 42
CCn1nccc1-c1ccc([C@H](CO)NC(=O)[C@@H]2C[C@@H](O)CN2C(=O)[C@H](C(C)C)n2cc(-c3ccc(COc4c(-c5c(C)c(F)cc6[nH]ncc56)c(C5CC5)cc5c(N6C[C@@H]7C[C@H]6CN7)nc(OC6CCOCC6)nc45)cc3)nn2)cc1 [Example 26] | 94 | –
Cc1ncsc1-c1ccc([C@H](CO)NC(=O)[C@@H]2C[C@@H](O)CN2C(=O)[C@H](C(C)C)n2cc(-c3ccc(COc4c(-c5c(C)c(F)cc6[nH]ncc56)c(C5CC5)cc5c(N6C[C@@H]7C[C@H]6CN7)nc(OC6CCOCC6)nc45)cc3)nn2)cc1 [Example 8, (4R)-1-[(2S)-2-(4-{4-[({6-cyclopropyl-4-[(1S,4S)-2,5-diazabicyclo[2.2.1]heptan-2-yl]-7-(6-fluoro-5-methyl-1H-indazol-4-yl)-2-[(oxan-4-yl)oxy]quinazolin-8-yl}oxy)methyl]phenyl}-1H-1,2,3-triazol-1-yl)-3-methylbutanoyl]-4-hydroxy-N-{(1R)-2-hydroxy-1-[4-(4-methyl-1,3-thiazol-5-yl)phenyl]ethyl}-L-prolinamide] | 98 | –
CO[C@@H](C)COc1nc(N2C[C@@H]3C[C@H]2CN3)c2cc(C3CC3)c(-c3c(C)c(F)cc4[nH]ncc34)c(OCc3ccc(-c4cn([C@H](C(=O)N5C[C@H](O)C[C@H]5C(=O)N[C@@H](CO)c5ccc(-c6scnc6C)cc5)C(C)C)nn4)cc3)c2n1 [Example 48] | – | 32
